Holding throughout (assay type): functional, cell-based
Assay [1] deals with MCF7. Briefly: Concentration required to inhibit growth of human tumor […] (breast) cell line.
In another assay the test system is HT-29. Briefly: Concentration required to inhibit growth of human tumor HT-29 (colon) cell line.
The subject of another assay is A549. As to the kind of experiment: Concentration required to inhibit growth of human tumor A549 (NSCL) cell line.
Assay [2] relates to MCF7. Briefly: Concentration required to inhibit growth of human tumor MCF-7 (breast) cell line.
For another assay, the system named is A121. As to the kind of experiment: Concentration required to inhibit growth of human tumor A121 (ovarian) cell line.

Structures are written as SMILES.

Broadly, the IC50 is the concentration that gives 50% inhibition. A lower IC50 goes with greater potency in that assay. Consider `CCCCCC(=O)O[C@H]1C(=O)[C@@]2(C)[C@H]([C@H](OC(=O)c3ccccc3)[C@]3(O)C[C@H](OC(=O)[C@H](O)[C@H](C=C(C)C)NC(=O)OC(C)(C)C)C(C)=C1C3(C)C)[C@]1(OC(C)=O)CO[C@@H]1C[C@@H]2O`, for which the IC50 in the assay on MCF7 [1] turned out to be 17.3 nM; in the assay on HT-29, 0.9 nM; with A549, 0.57 nM; with MCF7 [2], 0.4 nM; in the assay with A121, 0.5 nM.

As to `CC(=O)O[C@H]1C(=O)[C@@]2(C)[C@H]([C@H](OC(=O)c3ccccc3)[C@]3(O)C[C@H](OC(=O)[C@H](O)[C@H](CC(C)C)NC(=O)OC(C)(C)C)C(C)=C1C3(C)C)[C@]1(OC(C)=O)CO[C@@H]1C[C@@H]2O`, the IC50 in the assay with MCF7 [1] was determined as 36 nM; in the assay with HT-29, 3.2 nM; in the assay on A549 it was 0.98 nM; with MCF7 [2] it was 4 nM; in the assay on A121, 3.8 nM.

Turning to `CC(=O)O[C@@]12CO[C@@H]1C[C@H](O)[C@@]1(C)C(=O)[C@H](OC(=O)C3CC3)C3=C(C)[C@@H](OC(=O)[C@H](O)[C@H](CC(C)C)NC(=O)OC(C)(C)C)C[C@@](O)([C@@H](OC(=O)c4ccccc4)[C@H]21)C3(C)C`, the IC50 in the assay with MCF7 [1] was found to be 4.3 nM; in the assay on HT-29, 0.78 nM; in the assay with A549, 1.1 nM; with MCF7 [2] it was 0.51 nM; in the assay with A121, 0.51 nM.

Take `CNC(=O)O[C@H]1C(=O)[C@@]2(C)[C@H]([C@H](OC(=O)c3ccccc3)[C@]3(O)C[C@H](OC(=O)[C@H](O)[C@H](C=C(C)C)NC(=O)OC(C)(C)C)C(C)=C1C3(C)C)[C@]1(OC(C)=O)CO[C@@H]1C[C@@H]2O`: the IC50 in the assay with MCF7 [1] amounted to 20 nM; in the assay with HT-29, 1.2 nM; in the assay on A549, 0.7 nM; in the assay with MCF7 [2] it was 0.4 nM; in the assay with A121, 1.2 nM.

`CC(=O)O[C@@]12CO[C@@H]1C[C@H](O)[C@@]1(C)C(=O)[C@H](OC(=O)NC3CCCCC3)C3=C(C)[C@@H](OC(=O)[C@H](O)[C@H](C=C(C)C)NC(=O)OC(C)(C)C)C[C@@](O)([C@@H](OC(=O)c4ccccc4)[C@H]21)C3(C)C`: the IC50 with MCF7 [1] is 48 nM; with HT-29, 0.46 nM; in the assay with A549 it was 0.2 nM; in the assay on MCF7 [2] it was 0.33 nM; with A121, 0.28 nM.

Turning to `CO[C@H]1C(=O)[C@@]2(C)[C@H]([C@H](OC(=O)c3ccccc3)[C@]3(O)C[C@H](OC(=O)[C@H](O)[C@H](C=C(C)C)NC(=O)OC(C)(C)C)C(C)=C1C3(C)C)[C@]1(OC(C)=O)CO[C@@H]1C[C@@H]2O`, the IC50 is 123 nM in the assay on MCF7 [1]; 0.9 nM in the assay with HT-29; 0.9 nM in the assay on A549; 0.37 nM with MCF7 [2]; 0.7 nM with A121.

On to `CC(=O)O[C@@]12CO[C@@H]1C[C@H](O)[C@@]1(C)C(=O)[C@H](OC(=O)CC(C)(C)C)C3=C(C)[C@@H](OC(=O)[C@H](O)[C@H](C=C(C)C)NC(=O)OC(C)(C)C)C[C@@](O)([C@@H](OC(=O)c4ccccc4)[C@H]21)C3(C)C`, for which the IC50 was found to be 10.5 nM in the assay with MCF7 [1]; 0.5 nM with HT-29; 0.5 nM with A549; 0.4 nM in the assay with MCF7 [2]; 0.34 nM in the assay on A121.

For the molecule `COC(=O)O[C@H]1C(=O)[C@@]2(C)[C@H]([C@H](OC(=O)c3ccccc3)[C@]3(O)C[C@H](OC(=O)[C@H](O)[C@H](CC(C)C)NC(=O)OC(C)(C)C)C(C)=C1C3(C)C)[C@]1(OC(C)=O)CO[C@@H]1C[C@@H]2O`, the IC50 was 6.4 nM in the assay with MCF7 [1]; 0.44 nM with HT-29; 0.35 nM in the assay with A549; 0.28 nM in the assay with MCF7 [2]; 0.18 nM in the assay with A121.

Turning to `CC(=O)O[C@@]12CO[C@@H]1C[C@H](O)[C@@]1(C)C(=O)[C@H](OC(=O)CC(C)C)C3=C(C)[C@@H](OC(=O)[C@H](O)[C@H](C=C(C)C)NC(=O)OC(C)(C)C)C[C@@](O)([C@@H](OC(=O)c4ccccc4)[C@H]21)C3(C)C`, the IC50 was 8.5 nM in the assay on MCF7 [1]; 0.6 nM with HT-29; 0.4 nM in the assay on A549; 0.4 nM in the assay with MCF7 [2]; 0.6 nM in the assay on A121.

For `COC(=O)O[C@H]1C(=O)[C@@]2(C)[C@H]([C@H](OC(=O)c3ccccc3)[C@]3(O)C[C@H](OC(=O)[C@H](O)[C@H](C=C(C)C)NC(=O)OC(C)(C)C)C(C)=C1C3(C)C)[C@]1(OC(C)=O)CO[C@@H]1C[C@@H]2O`, the IC50 with MCF7 [1] was 5.3 nM; with HT-29, 0.3 nM; in the assay on A549, 0.32 nM; in the assay on MCF7 [2], 0.14 nM; with A121, 0.23 nM.

Regarding `C/C=C/C(=O)O[C@H]1C(=O)[C@@]2(C)[C@H]([C@H](OC(=O)c3ccccc3)[C@]3(O)C[C@H](OC(=O)[C@H](O)[C@H](C=C(C)C)NC(=O)OC(C)(C)C)C(C)=C1C3(C)C)[C@]1(OC(C)=O)CO[C@@H]1C[C@@H]2O`, the IC50 stood at 3.4 nM in the assay on MCF7 [1]; 0.6 nM in the assay with HT-29; 1.7 nM in the assay on A549; 0.26 nM in the assay with MCF7 [2]; 0.45 nM in the assay with A121.

As for `CC(=O)O[C@@]12CO[C@@H]1C[C@H](O)[C@@]1(C)C(=O)[C@H](OC(=O)N(C)C)C3=C(C)[C@@H](OC(=O)[C@H](O)[C@H](CC(C)C)NC(=O)OC(C)(C)C)C[C@@](O)([C@@H](OC(=O)c4ccccc4)[C@H]21)C3(C)C`, the IC50 in the assay with MCF7 [1] was 5.8 nM; in the assay with HT-29 it was 0.6 nM; in the assay on A549, 0.5 nM; with MCF7 [2], 0.36 nM; with A121 it was 0.4 nM.

As to `CCN(CC)C(=O)O[C@H]1C(=O)[C@@]2(C)[C@H]([C@H](OC(=O)c3ccccc3)[C@]3(O)C[C@H](OC(=O)[C@H](O)[C@H](C=C(C)C)NC(=O)OC(C)(C)C)C(C)=C1C3(C)C)[C@]1(OC(C)=O)CO[C@@H]1C[C@@H]2O`, the IC50 was determined as 9.1 nM with MCF7 [1]; 0.4 nM in the assay on HT-29; 0.2 nM in the assay with A549; 0.2 nM with MCF7 [2]; 0.17 nM in the assay on A121.

Turning to `CC(=O)O[C@@]12CO[C@@H]1C[C@H](O)[C@@]1(C)C(=O)[C@H](OC(=O)NC3CCCCC3)C3=C(C)[C@@H](OC(=O)[C@H](O)[C@H](CC(C)C)NC(=O)OC(C)(C)C)C[C@@](O)([C@@H](OC(=O)c4ccccc4)[C@H]21)C3(C)C`, the IC50 in the assay on MCF7 [1] amounted to 33 nM; in the assay with HT-29 it was 5 nM; with A549, 3.7 nM; with MCF7 [2], 1.6 nM; in the assay on A121, 5 nM.

For the molecule `CC(=O)O[C@@]12CO[C@@H]1C[C@H](O)[C@@]1(C)C(=O)[C@H](OC(=O)C3CCCCC3)C3=C(C)[C@@H](OC(=O)[C@H](O)[C@H](C=C(C)C)NC(=O)OC(C)(C)C)C[C@@](O)([C@@H](OC(=O)c4ccccc4)[C@H]21)C3(C)C`, the IC50 in the assay on MCF7 [1] amounted to 22.3 nM; in the assay on HT-29 it was 1.05 nM; with A549 it was 0.75 nM; in the assay on MCF7 [2] it was 0.46 nM; in the assay with A121, 0.5 nM.

Molecule `CC(=O)O[C@H]1C(=O)[C@@]2(C)[C@H]([C@H](OC(=O)c3ccccc3)[C@]3(O)C[C@H](OC(=O)[C@H](O)[C@@H](NC(=O)c4ccccc4)c4ccccc4)C(C)=C1C3(C)C)[C@]1(OC(C)=O)CO[C@@H]1C[C@@H]2O` [PACLITAXEL] returned an IC50 in the assay on A121 of 6.3 nM.
